This assay addresses T1, BRM (Homo sapiens, UniProt P51531).
T1 construct: In-Cell Western Screen of BRM Degradation in SW1573 Cells; endogenous in cells; host or cells: SW1573
Nature of the assay: In-cell Western screen of BRM degradation in SW1573 cells (Dmax and DC50). Format: cell-based. Conditions: for DC50: BRM degradation, read-out: BRM DC50; for Dmax: SW1573, read-out: BRM Dmax (%). In short, it runs like this: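 SW1573, overnight cpd exposure (18-20 h), 0.1% DMSO final. PFA fix, 0.5% Triton permeabilization, block; IR secondaries at 800/680 nm. Odyssey read → Dmax, DC50.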

Setting [1] is: % degraded, when tested at the top concentration of between 0.3 and 10 μM.

T1 sequence (P51531 whole entry): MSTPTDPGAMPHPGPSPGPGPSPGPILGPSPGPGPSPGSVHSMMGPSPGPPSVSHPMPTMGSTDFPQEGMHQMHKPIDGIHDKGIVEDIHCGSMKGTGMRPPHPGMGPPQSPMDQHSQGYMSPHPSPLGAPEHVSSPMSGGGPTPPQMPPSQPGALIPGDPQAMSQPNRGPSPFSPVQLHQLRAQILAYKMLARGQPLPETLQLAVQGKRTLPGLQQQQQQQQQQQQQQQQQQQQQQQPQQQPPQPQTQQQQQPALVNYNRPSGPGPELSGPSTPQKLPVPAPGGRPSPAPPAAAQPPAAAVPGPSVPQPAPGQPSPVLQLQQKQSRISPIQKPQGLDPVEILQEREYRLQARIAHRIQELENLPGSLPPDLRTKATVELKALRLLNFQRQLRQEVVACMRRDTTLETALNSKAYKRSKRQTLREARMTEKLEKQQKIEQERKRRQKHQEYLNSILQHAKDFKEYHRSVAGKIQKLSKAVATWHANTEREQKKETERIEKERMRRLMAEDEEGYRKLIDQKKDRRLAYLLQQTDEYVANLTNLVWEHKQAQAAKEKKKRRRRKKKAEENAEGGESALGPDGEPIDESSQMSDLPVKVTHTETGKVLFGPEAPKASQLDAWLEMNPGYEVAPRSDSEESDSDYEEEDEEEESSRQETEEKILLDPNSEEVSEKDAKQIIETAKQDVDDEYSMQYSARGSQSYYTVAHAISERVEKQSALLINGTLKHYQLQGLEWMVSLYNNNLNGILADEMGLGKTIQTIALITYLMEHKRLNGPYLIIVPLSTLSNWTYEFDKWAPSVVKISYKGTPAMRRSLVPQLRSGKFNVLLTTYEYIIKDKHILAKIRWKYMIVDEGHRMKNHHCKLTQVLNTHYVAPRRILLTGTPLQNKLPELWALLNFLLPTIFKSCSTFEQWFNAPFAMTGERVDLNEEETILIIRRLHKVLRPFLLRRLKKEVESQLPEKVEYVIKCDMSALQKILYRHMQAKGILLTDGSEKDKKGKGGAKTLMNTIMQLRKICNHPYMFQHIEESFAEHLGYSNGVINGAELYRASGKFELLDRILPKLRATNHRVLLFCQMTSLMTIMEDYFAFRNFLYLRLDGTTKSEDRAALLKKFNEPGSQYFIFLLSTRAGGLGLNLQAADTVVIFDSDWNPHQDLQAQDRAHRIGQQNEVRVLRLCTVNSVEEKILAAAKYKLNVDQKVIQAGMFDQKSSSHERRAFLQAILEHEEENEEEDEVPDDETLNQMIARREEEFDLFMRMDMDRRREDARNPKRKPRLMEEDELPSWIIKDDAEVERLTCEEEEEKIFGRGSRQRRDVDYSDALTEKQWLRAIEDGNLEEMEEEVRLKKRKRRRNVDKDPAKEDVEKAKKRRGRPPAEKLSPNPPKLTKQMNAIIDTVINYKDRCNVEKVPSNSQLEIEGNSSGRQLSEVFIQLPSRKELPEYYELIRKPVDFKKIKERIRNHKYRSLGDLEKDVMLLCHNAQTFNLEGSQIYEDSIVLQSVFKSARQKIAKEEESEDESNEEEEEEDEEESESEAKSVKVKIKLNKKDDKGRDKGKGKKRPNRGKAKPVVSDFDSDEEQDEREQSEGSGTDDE

By DC50 is commonly meant the midpoint of the concentration-degradation curve. As usually defined, the Dmax is the largest share of the target that was removed. `Cc1ncsc1-c1ccc([C@H](C)NC(=O)[C@@H]2C[C@@H](O)CN2C(=O)[C@@H](c2cc(OCCN3CCC(O[C@H]4C[C@H](Oc5cc(N6C7CCC6CN(c6cc(-c8cc(F)ccc8O)nnc6N)C7)ccn5)C4)CC3)no2)C(C)C)cc1` [compound 502, (2S,4R)-1-((2R)-2-(3-(2-(4-((1r,3R)-3-((4-(3-(3-amino-6-(5-fluoro-2-hydroxyphenyl)pyridazin-4-yl)-3,8-diazabicyclo[3.2.1]octan-8-yl)pyridin-2-yl)oxy)cyclobutoxy)piperidin-1-yl)ethoxy)isoxazol-5-yl)-3-methylbutanoyl)-4-hydroxy-N-((S)-1-(4-(4-methylthiazol-5-yl)phenyl)ethyl)pyrrolidine-2-carboxamide]: the DC50 was less than 2.5 nM. For the same molecule, under setting [1], the Dmax was greater than 75%.
With `Cc1ncsc1-c1ccc([C@H](C)NC(=O)[C@@H]2C[C@@H](O)CN2C(=O)[C@H](c2cc(OCCN3CCC(O[C@H]4C[C@H](Oc5cc(N6C7CCC6CN(c6cc(-c8ccccc8O)nnc6N)C7)ccn5)C4)CC3)no2)C(C)C)nn1` [compound 503, (2S,4R)-1-((2S)-2-(3-(2-(4-((1r,3S)-3-((4-(3-(3-amino-6-(2-hydroxyphenyl)pyridazin-4-yl)-3,8-diazabicyclo[3.2.1]octan-8-yl)pyridin-2-yl)oxy)cyclobutoxy)piperidin-1-yl)ethoxy)isoxazol-5-yl)-3-methylbutanoyl)-4-hydroxy-N-((S)-1-(6-(4-methylthiazol-5-yl)pyridazin-3-yl)ethyl)pyrrolidine-2-carboxamide], the DC50 was greater than 30 nM.
The same measure, in the same setting: the figure for `Cc1ncsc1-c1ccc([C@H](C)NC(=O)[C@@H]2C[C@@H](O)CN2C(=O)[C@@H](c2cc(OCCN3CCC(O[C@H]4C[C@H](Oc5cc(N6C7CCC6CN(c6cc(-c8ccccc8O)nnc6N)C7)ccn5)C4)CC3)no2)C(C)C)nn1` [compound 504, (2S,4R)-1-((2R)-2-(3-(2-(4-((1r,3R)-3-((4-(3-(3-amino-6-(2-hydroxyphenyl)pyridazin-4-yl)-3,8-diazabicyclo[3.2.1]octan-8-yl)pyridin-2-yl)oxy)cyclobutoxy)piperidin-1-yl)ethoxy)isoxazol-5-yl)-3-methylbutanoyl)-4-hydroxy-N-((S)-1-(6-(4-methylthiazol-5-yl)pyridazin-3-yl)ethyl)pyrrolidine-2-carboxamide] is greater than 30 nM.
As to `Cc1ncsc1-c1ccc([C@H](C)NC(=O)[C@@H]2C[C@@H](O)CN2C(=O)[C@@H](c2cc(OCCN(C(C)C)[C@H]3CC[C@H](O[C@H]4C[C@H](Oc5cc(N6C7CCC6CN(c6cc(-c8ccccc8O)nnc6N)C7)ccn5)C4)CC3)no2)C(C)C)cn1` [compound 505, (2S,4R)-1-((2R)-2-(3-(2-(((1R,4R)-4-((1r,3R)-3-((4-(3-(3-amino-6-(2-hydroxyphenyl)pyridazin-4-yl)-3,8-diazabicyclo[3.2.1]octan-8-yl)pyridin-2-yl)oxy)cyclobutoxy)cyclohexyl)(isopropyl)amin 0)ethoxy)isoxazol-5-yl)-3-methylbutanoyl)-4-hydroxy-N-((S)-1-(6-(4-methylthiazol-5-yl)pyridin-3-yl)ethyl)pyrrolidine-2-carboxamide], the DC50 lay within 2.5 to 10 nM. For the same molecule, the Dmax under setting [1] was greater than 75%.
For `Cc1ncsc1-c1ccc([C@H](C)NC(=O)[C@@H]2C[C@@H](O)CN2C(=O)[C@@H](c2cc(OCCN3CCC(O[C@H]4C[C@H](Oc5cc(N6C7CCC6CN(c6cc(-c8ccccc8OP(=O)(O)O)nnc6N)C7)ccn5)C4)CC3)no2)C(C)C)cc1` [compound 506, 2-(6-amino-5-(8-(2-((1R,3r)-3-((1-(2-((5-((R)-1-((2S,4R)-4-hydroxy-2-(((S)-1-(4-(4-methylthiazol-5-yl)phenyl)ethyl)carbamoyl)pyrrolidin-1-yl)-3-methyl-1-oxobutan-2-yl)isoxazol-3-yl)oxy)ethyl)piperidin-4-yl)oxy)cyclobutoxy)pyridin-4-yl)-3,8-diazabicyclo[3.2.1]octan-3-yl)pyridazin-3-yl)phenyl dihydrogen phosphate], in that order: less than 2.5 nM and greater than 75%.
For `Cc1ncsc1-c1ccc([C@H](C)NC(=O)[C@@H]2C[C@@H](O)CN2C(=O)[C@@H](c2cc(OCCN3CCN(CCOc4cc(N5C6CCC5CN(c5cc(-c7ccccc7O)nnc5N)C6)ccn4)C[C@@H]3C)no2)C(C)C)cn1` [compound 509, (2S,4R)-1-((2R)-2-(3-(2-((2S)-4-(2-((4-(3-(3-amino-6-(2-hydroxyphenyl)pyridazin-4-yl)-3,8-diazabicyclo[3.2.1]octan-8-yl)pyridin-2-yl)oxy)ethyl)-2-methylpiperazin-1-yl)ethoxy)isoxazol-5-yl)-3-methylbutanoyl)-4-hydroxy-N-((S)-1-(6-(4-methylthiazol-5-yl)pyridin-3-yl)ethyl)pyrrolidine-2-carboxamide], the DC50 is less than 2.5 nM. The Dmax under setting [1] is greater than 75%.
For `Cc1ncsc1-c1ccc([C@H](C)NC(=O)[C@@H]2C[C@@H](O)CN2C(=O)[C@H](c2cc(OCCC3CCN(CCOc4cc(N5C6CCC5CN(c5cc(-c7ccccc7O)nnc5N)C6)ccn4)CC3)no2)C(C)C)cc1` [compound 510, (2S,4R)-1-((2S)-2-(3-(2-(1-(2-((4-(3-(3-amino-6-(2-hydroxyphenyl)pyridazin-4-yl)-3,8-diazabicyclo[3.2.1]octan-8-yl)pyridin-2-yl)oxy)ethyl)piperidin-4-yl)ethoxy)isoxazol-5-yl)-3-methylbutanoyl)-4-hydroxy-N-((S)-1-(4-(4-methylthiazol-5-yl)phenyl)ethyl)pyrrolidine-2-carboxamide], in that order: less than 2.5 nM and greater than 75%.
Regarding `Cc1ncsc1-c1ccc([C@H](C)NC(=O)[C@@H]2C[C@@H](O)CN2C(=O)[C@@H](c2cc(OCCC3CCN(CCOc4cc(N5C6CCC5CN(c5cc(-c7ccccc7O)nnc5N)C6)ccn4)CC3)no2)C(C)C)cc1` [compound 511, (2S,4R)-1-((2R)-2-(3-(2-(1-(2-((4-(3-(3-amino-6-(2-hydroxyphenyl)pyridazin-4-yl)-3,8-diazabicyclo[3.2.1]octan-8-yl)pyridin-2-yl)oxy)ethyl)piperidin-4-yl)ethoxy)isoxazol-5-yl)-3-methylbutanoyl)-4-hydroxy-N-((S)-1-(4-(4-methylthiazol-5-yl)phenyl)ethyl)pyrrolidine-2-carboxamide], the DC50 was greater than 30 nM.
For `Cc1ncsc1-c1ccc([C@H](C)NC(=O)[C@@H]2C[C@@H](O)CN2C(=O)[C@@H](NC(=O)CN2CCC(CN3CCC(OC4CC(Oc5cc(N6C7CC[C@@H]6CN(c6cc(-c8ccccc8O)nnc6N)C7)ccn5)C4)CC3)CC2)C(C)(C)C)cc1` (stereo partly drawn) [compound 512, (2S,4R)-1-((2S)-2-(2-(4-((4-((1r,3r)-3-((4-(3-(3-amino-6-(2-hydroxyphenyl)pyridazin-4-yl)-3,8-diazabicyclo[3.2.1]octan-8-yl)pyridin-2-yl)oxy)cyclobutoxy)piperidin-1-yl)methyl)piperidin-1-yl)acetamido)-3,3-dimethylbutanoyl)-4-hydroxy-N-((S)-1-(4-(4-methylthiazol-5-yl)phenyl)ethyl)pyrrolidine-2-carboxamide], the 50% degradation concentration (DC50) is less than 2.5 nM. Besides, the “BRM Dmax (%)” value under setting [1] is reported as “A (A > 75)”.
`Cc1cc([C@@H](C(=O)N2C[C@H](O)C[C@H]2C(=O)N[C@@H](C)c2ccc(-c3scnc3C)cc2)[C@H](C)COCCOc2cc(N3C4CCC3CN(c3cc(-c5ccccc5O)nnc3N)C4)ccn2)on1` [compound 513, (2S,4R)-1-((2S,3S)-4-(2-((4-(3-(3-amino-6-(2-hydroxyphenyl)pyridazin-4-yl)-3,8-diazabicyclo[3.2.1]octan-8-yl)pyridin-2-yl)oxy)ethoxy)-3-methyl-2-(3-methylisoxazol-5-yl)butanoyl)-4-hydroxy-N-((S)-1-(4-(4-methylthiazol-5-yl)phenyl)ethyl)pyrrolidine-2-carboxamide]: the half-maximal degradation concentration (DC50) is greater than 30 nM.
In the case of `Cc1cc([C@H](C(=O)N2C[C@H](O)C[C@H]2C(=O)N[C@@H](C)c2ccc(-c3scnc3C)cc2)[C@H](C)COCCOc2cc(N3C4CCC3CN(c3cc(-c5ccccc5O)nnc3N)C4)ccn2)on1` [compound 514, (2S,4R)-1-((2R,3S)-4-(2-((4-(3-(3-amino-6-(2-hydroxyphenyl)pyridazin-4-yl)-3,8-diazabicyclo[3.2.1]octan-8-yl)pyridin-2-yl)oxy)ethoxy)-3-methyl-2-(3-methylisoxazol-5-yl)butanoyl)-4-hydroxy-N-((S)-1-(4-(4-methylthiazol-5-yl)phenyl)ethyl)pyrrolidine-2-carboxamide], the DC50 was greater than 30 nM.
Still for that read-out and setting: the figure for `Cc1ncsc1-c1ccc([C@H](C)NC(=O)[C@@H]2C[C@@H](O)CN2C(=O)[C@@H](c2cc(OCCN3CCC(O[C@H]4C[C@H](Oc5cc(N6C7CCC6CN(c6ccnc8nc(-c9ccccc9O)cn68)C7)ccn5)C4)CC3)no2)C(C)C)cc1` [compound 515] is greater than 30 nM; for `Cc1ncsc1-c1ccc([C@H](C)NC(=O)[C@@H]2C[C@@H](O)CN2C(=O)[C@@H](c2cc(OCCN3CCC(O[C@H]4C[C@H](Oc5cc(N6C7CCC6CN(c6cc(N)nc8nc(-c9ccccc9O)cn68)C7)ccn5)C4)CC3)no2)C(C)C)cc1` [compound 516] it is greater than 30 nM.
For `Cc1ncsc1-c1ccc([C@H](C)NC(=O)[C@@H]2C[C@@H](OP(=O)(O)O)CN2C(=O)[C@@H](c2cc(OCCN3CCC(O[C@H]4C[C@H](Oc5cc(N6C7CCC6CN(c6cc(-c8ccccc8OP(=O)(O)O)nnc6N)C7)ccn5)C4)CC3)no2)C(C)C)cc1` [compound 517, (3R,5S)-1-((2R)-2-(3-(2-(4-((1r,3R)-3-((4-(3-(3-amino-6-(2-(phosphonooxy)phenyl)pyridazin-4-yl)-3,8-diazabicyclo[3.2.1]octan-8-yl)pyridin-2-yl)oxy)cyclobutoxy)piperidin-1-yl)ethoxy)isoxazol-5-yl)-3-methylbutanoyl)-5-(((S)-1-(4-(4-methylthiazol-5-yl)phenyl)ethyl)carbamoyl)pyrrolidin-3-yl dihydrogen phosphate], the DC50 was less than 2.5 nM. Besides, the Dmax under setting [1] was greater than 75%.

These data come from US12539292B2, “BRM targeting compounds and associated methods of use” (Arvinas Operations, Inc., priority 2018, dated 2026).
